Molecular target: T1, maternal embryonic leucine-zipper kinase (MELK) (Homo sapiens, UniProt Q14680)
T1 construct: recombinant MELK protein
Test: in vitro kinase assay with recombinant MELK, ten-dose curve
Format: biochemical

T1 sequence (Q14680 whole entry): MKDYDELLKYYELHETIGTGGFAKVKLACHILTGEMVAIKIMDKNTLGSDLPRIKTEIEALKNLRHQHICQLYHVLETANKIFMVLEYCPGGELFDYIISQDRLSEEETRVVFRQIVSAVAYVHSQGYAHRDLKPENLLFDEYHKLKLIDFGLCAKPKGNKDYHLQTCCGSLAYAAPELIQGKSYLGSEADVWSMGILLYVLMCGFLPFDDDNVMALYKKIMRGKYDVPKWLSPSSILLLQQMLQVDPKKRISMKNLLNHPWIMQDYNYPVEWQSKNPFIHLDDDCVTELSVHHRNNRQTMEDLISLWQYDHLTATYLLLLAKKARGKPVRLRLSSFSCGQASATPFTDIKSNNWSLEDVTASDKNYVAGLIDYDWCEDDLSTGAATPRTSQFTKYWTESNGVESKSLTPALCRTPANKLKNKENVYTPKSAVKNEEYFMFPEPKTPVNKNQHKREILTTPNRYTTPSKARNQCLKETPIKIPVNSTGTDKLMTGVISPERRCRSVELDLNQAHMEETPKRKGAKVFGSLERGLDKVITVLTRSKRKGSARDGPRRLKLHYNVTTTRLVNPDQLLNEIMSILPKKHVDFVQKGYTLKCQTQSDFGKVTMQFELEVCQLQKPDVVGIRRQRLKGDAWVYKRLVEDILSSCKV

IC50: 42 nM
SMILES: CCc1c[nH]c(=O)c2c1[nH]c1ccc3cc(OC)ccc3c12 [C1, Compound 1]
